Experimental data from PMC9537276, “A pathway for chitin oxidation in marine bacteria” (Nature Communications, 2022).

Assays:
OngC = target: T1, OngC (Pseudoalteromonas prydzensis, UniProt Z9U939ZVG8); assay: ammonia release assay kit; Q-TOF-MS; assay type: biochemical; details: 10 mM substrate (made in situ by OngB from GlcNAc1A), 10 mM Bis-Tris-HCl pH 7.5, 25 °C
T1 construct: full length, C-terminal His tag, pET22b, E. coli BL21 (DE3)
T1 sequence (Z9U939ZVG8 1-415): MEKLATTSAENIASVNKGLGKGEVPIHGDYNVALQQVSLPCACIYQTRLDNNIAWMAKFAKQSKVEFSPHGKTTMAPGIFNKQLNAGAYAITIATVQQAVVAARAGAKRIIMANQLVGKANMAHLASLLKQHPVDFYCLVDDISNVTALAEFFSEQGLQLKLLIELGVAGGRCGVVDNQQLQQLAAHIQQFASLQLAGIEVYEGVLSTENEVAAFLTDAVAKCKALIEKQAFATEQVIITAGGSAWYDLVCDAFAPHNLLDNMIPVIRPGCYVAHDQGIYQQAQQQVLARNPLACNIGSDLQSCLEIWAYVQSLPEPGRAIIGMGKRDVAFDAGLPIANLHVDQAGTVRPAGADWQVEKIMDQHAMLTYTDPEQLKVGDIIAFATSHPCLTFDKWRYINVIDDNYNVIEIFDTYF

OngB = target: T2, OngB (Pseudoalteromonas prydzensis, UniProt A0A7V1CY72); assay: acetate release assay kit; Q-TOF-MS; assay type: biochemical; details: 25 mM substrate, 10 mM Bis-Tris-HCl pH 7.5, 25 °C, 30 min
T2 construct: gene ENH88_07920; full length, C-terminal His tag, pET22b, E. coli BL21 (DE3)
T2 sequence (A0A7V1CY72 1-489): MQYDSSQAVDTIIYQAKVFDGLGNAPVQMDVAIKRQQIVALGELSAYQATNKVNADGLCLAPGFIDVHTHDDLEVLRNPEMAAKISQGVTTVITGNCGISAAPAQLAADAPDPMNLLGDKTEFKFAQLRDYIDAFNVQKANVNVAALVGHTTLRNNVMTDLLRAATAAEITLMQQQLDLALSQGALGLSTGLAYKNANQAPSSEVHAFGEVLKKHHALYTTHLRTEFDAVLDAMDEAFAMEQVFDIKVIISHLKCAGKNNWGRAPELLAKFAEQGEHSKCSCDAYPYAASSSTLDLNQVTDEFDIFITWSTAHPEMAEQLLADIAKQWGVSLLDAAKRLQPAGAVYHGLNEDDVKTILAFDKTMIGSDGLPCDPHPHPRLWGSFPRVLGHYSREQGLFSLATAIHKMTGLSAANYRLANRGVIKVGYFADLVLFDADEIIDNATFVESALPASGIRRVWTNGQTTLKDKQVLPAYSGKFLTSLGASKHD

Row | SMILES | ammonia release assay kit; Q-TOF-MS (OngC) | acetate release assay kit; Q-TOF-MS (OngB)
1 | N[C@@H](C(=O)O)[C@@H](O)[C@H](O)[C@H](O)CO [GlcN1A, 2-(amino)-2-deoxy-D-gluconic acid] | OngC can deaminate GlcN1A to produce ammonia and KDG | 
2 | CC(=O)N[C@@H](C(=O)O)[C@@H](O)[C@H](O)[C@H](O)CO [GlcNAc1A, 2-(acetylamino)−2-deoxy-D-gluconic acid] |  | Only OngB was shown to act on GlcNAc1A to produce acetate
